Measured values from US20120077794A1, “BIS-PYRIDYLPYRIDONES AS MELANIN-CONCENTRATING HORMONE RECEPTOR 1 ANTAGONISTS” (GLAXSMITHKLINE LLC, priority 2009, published 2012).
Where two headings read alike, the source gives them in different places.

Target: T1, hMCHR1 (Homo sapiens, UniProt Q99705)
T1 construct: expressed in transfected cells; host or cells: HEK293
Test: MCHR1 pIC50 Determination FLIPR Assay
Type: cell-based
Description: MCHR1 pIC50 Determination FLIPR™ Assay: HEK293 cells stably transfected with hMCHR1 were propagated as adherent cultures at 37° C. in a humidified incubator. Cells were split 1:8 at 90% confluency two times per week. New cell stocks were recovered from storage every two months. Cells were plated in black 384-well plates (Greiner) 24 hours prior to assay at 15,000 cells/well in 50 μL DMEM/F12, 10% FBS, 2 mM I-glutamine. Compounds to be profiled were prepared by making a stock solution at 3×10^−3M in 100% DMSO. The stock solutions were serially diluted 1:4 in 100% DMSO using JANUS (PerkinElmer) liquid handling instrument to allow for an 11 point curve in singlicate. At the time of the assay, the media was removed from the cell plate by aspiration, followed by the addition of 20 μL of loading buffer (Calcium 4 Kit, […]). Following 50 min incubation at 37° C., 10 μL of compound was added to the plates via the FLIPR™ instrument ([…]). The plates were incubated at room temperature for 15 minutes along with an MCH peptide agonist challenge plate. On the FLIPR™, a basal response was collected over 10 seconds followed by the addition of 10 μL of MCH challenge concentration at 4XEC50. Data was collected over 4 minutes and subjected to a nonlinear regression analysis curve fitting program to generate pIC50s.

[1] = HEK293 cells stably transfected with hMCHR1, MCH challenge at 4XEC50, at least one experimental run, read-out: IC50 in the FLIPR assay

T1 sequence (Q99705 whole entry): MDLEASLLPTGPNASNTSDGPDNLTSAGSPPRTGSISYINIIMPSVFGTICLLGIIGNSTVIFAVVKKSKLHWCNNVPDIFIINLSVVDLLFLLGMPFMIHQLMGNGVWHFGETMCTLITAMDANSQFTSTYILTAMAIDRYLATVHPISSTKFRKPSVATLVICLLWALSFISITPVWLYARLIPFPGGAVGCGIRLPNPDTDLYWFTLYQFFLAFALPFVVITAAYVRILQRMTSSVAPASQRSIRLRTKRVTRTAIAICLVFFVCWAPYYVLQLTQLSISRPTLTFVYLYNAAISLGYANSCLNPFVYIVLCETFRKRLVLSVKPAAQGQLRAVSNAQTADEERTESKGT

SMILES: CC(C)[C@H]1CN(c2ccc(-n3ccc(OCc4ccc(Cl)cn4)cc3=O)cn2)CCN1C [Example 19]
- IC50 [1]: 53 nM

SMILES: O=c1cc(OCc2ccc(Cl)cn2)ccn1-c1ccc(N2CCCNCC2)nc1 [Example 13]
- IC50 [1]: 52 nM

SMILES: O=c1cc(OCc2ccc(Cl)cn2)ccn1-c1ccc(N2CCNCC2)nc1 [Example 2, 4-{[(5-chloro-2-pyridinyl)methyl]oxy}-6′-(piperazin-1-yl)-2H-1,3′-bipyridin-2-one]
- IC50 (quantity and assay not stated, read-out: unlabelled value in the heading of Example 2): 88 nM

SMILES: O=c1cc(OCc2ccc(Cl)cn2)ccn1-c1ccc(N2CCC[C@@H]2CO)nc1 [Example 4, 4-{[(5-chloro-2-pyridinyl)methyl]oxy}-6′-{[(2R)-hydroxymethyl]pyrrolidin-1-yl}-2H-1,3′-bipyridin-2-one]
- IC50 [1]: 48 nM
